Data taken from US7495018B2, “Substituted 1,3-thiazole compounds, their production and use” (Takeda Pharmaceutical Company Limited, priority 2000, dated 2009).

Assays:
[1] = system: TNF-α production in THP-1 cells; experiment: Inhibitory activity of TNF-α production in LPS-stimulated THP-1 cells; assay type: cell-based; details: Homo sapiens, LPS 5 μg/mL, 4 hours, TNF-α by ELISA, read-out: IC50 (concentration inhibiting 50% of TNF-α production)
Protocol: Measurement of Inhibitory Activity of TNF-α Production
THP-1 cells cultured in a PRMI 1640 medium (Life Technologies, Inc., USA) containing 1% inactivated fetal bovine serum (Life Technologies, Inc.) and 10 mM HEPES (pH 7.5) were inoculated on a 96 well plate to give 1×10^5 cells/well, then, 1 μL of a sample compound dissolved in DMSO was added. After incubation for 1 hour at 37° C. in a CO2 incubator, LPS (Wako Pure Chemical Industries Ltd.) was added to give a final concentration of 5 μg/mL. After incubation for 4 hours at 37° C. in a CO2 incubator, the supernatant was obtained by centrifugal separation. The TNF-α concentration in the supernatant was measured by ELISA (R&D Systems, Quantikine Kit). The concentration (IC50 value) of a sample compound necessary for inhibiting 50% of TNF-α production was calculated by PRISM 2.01 (GraphPad Software).

[2] = molecular target: T1, human p38 MAP kinase (Homo sapiens, UniProt Q16539); experiment: p38 MAP kinase inhibition, 32P incorporation into Myelin Basic Protein; assay type: biochemical; details: active type p38 MAP kinase, Myelin Basic Protein substrate, 60 minutes at 30° C.; read-out: IC50 (concentration inhibiting 50% of 32P incorporation into the acid insoluble fraction)
T1 construct: FLAG (N); made in house; host or cells: Sf-21 insect cells, co-infected with baculoviruses BAC-HP38 and BAC-caMKK3
Protocol: (1) Cloning of Human p38 MAP Kinase Gene and Preparation of Recombinant Baculovirus
(3) Preparation of Active Type p38 MAP Kinase
Sf-21 cells were inoculated on 100 mL Sf-900II SF medium (GIBCOBRL) to give 1×10^6 cells/mL, then, cultured for 24 hours at 27° C. Each 0.2 mL of virus stocks BAC-HP38 and BAC-caMKK3 of the recombinant baculovirus were added, then, cultured for further 48 hours. Cells were separated from the culture solution by centrifugal separation (3000 rpm, 10 min.), then, washed with PBS twice. The cells were suspended in 10 mL of Lysis buffer (25 mM HEPES (pH7.5), 1% TritonX, 130 mM NaCl, 1 mM EDTA, 1 mM DTT, 25 mM β-glycerophosphate, […], 1 mM APMSF, 1 mM Sodium orthovanadate), then, treatment by Homogenizer (POLYTRON) for 2 minutes at 20000 rpm was performed twice to lyse the cells. […]
(4) To 37.5 μL of a reaction solution (25 mM HEPES (pH 7.5), 10 mM Magnesium Acetate) containing 260 ng of active type p38 MAP kinase and 1 μg of Myelin Basic Protein was added 2.5 μL of a sample compound dissolved in DMSO, then, the mixture was kept at 30° C. for 5 minutes. […] After drying for 60 minutes at 45° C., 40 μL of Microscint 0 (Packard Japan) was added, and radiation activity was measured by Top Counter (Packard Japan). […]

T1 sequence (Q16539 whole entry): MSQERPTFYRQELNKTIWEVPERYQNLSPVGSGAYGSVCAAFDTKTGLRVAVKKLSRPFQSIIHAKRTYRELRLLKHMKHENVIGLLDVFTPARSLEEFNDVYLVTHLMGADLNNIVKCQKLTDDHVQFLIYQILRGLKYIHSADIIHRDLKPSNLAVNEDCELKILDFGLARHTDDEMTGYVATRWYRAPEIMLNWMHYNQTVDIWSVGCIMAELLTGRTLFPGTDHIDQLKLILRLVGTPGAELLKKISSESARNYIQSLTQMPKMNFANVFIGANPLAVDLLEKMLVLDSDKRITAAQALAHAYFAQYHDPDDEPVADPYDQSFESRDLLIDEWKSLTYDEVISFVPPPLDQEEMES

melting point: 176 to 177 °C | IC50 [1]: 82 nM | IC50 [2]: 17 nM
SMILES: Cc1cccc(-c2nc(N(C)C(=O)c3ccc(C)nc3)sc2-c2ccnc(NC3CCCC3)c2)c1 [Example 46-4]
